Assay [1] has as its system gene encoding adrenomedullin. Put plainly: Adrenomedullin gene expression in peripheral blood mononuclear cells. The assay is classed as cell-based. To be noted: human PBMCs, 5 μM, 20 hours. Here is the method: Adrenomedullin gene expression following compound treatment was also examined in peripheral blood mononuclear cells (PBMCs). Whole human blood was collected and processed immediately. The blood was diluted with an equal volume of phosphate buffered saline. FICOLL-PAQUE PLUS (Amersham Biosciences) was layered under the blood and the tubes were centrifuged at 350×g for 12 minutes at room temperature. PBMCs formed a visible layer in the middle layer of the tube. PBMCs were carefully removed from the tube, diluted with 3 volumes of phosphate buffered saline, and pelleted by centrifugation for 5 minutes at 300×g at room temperature. PBMCs were cultured in DMEM containing 2.5% fetal bovine serum and treated with either 0.25% DMSO or compound G (5 μM) in 0.25% DMSO for 20 hours. The cells were then pelleted and stored at −20° C. in RLT lysis buffer (Qiagen Inc., Valencia, Calif.) containing 1% beta-mercaptoethanol. Total RNA was isolated using the RNeasy kit (Valencia, Calif.).

The test system of assay [2] is H9c2 rat cardiomyocytes. Briefly: Intracellular ATP levels in H9c2 cardiomyocytes after oxygen and glucose deprivation (glucose-free DMEM, 2 mM KCN). The class given is cell-based. To be noted: H9c2, 20 μM pretreatment 24 hours, glucose-free DMEM and 2 mM KCN for 30 minutes; vehicle control 415. Here is the method:
In similar experiments, H9c2 rat cardiomyocytes were pretreated with either vehicle control (0.5% DMSO) or 20 μM of Compound A, Compound B, Compound C, Compound D, Compound E, Compound F, Compound G, or compound H. After 24 hours, cells were washed with serum-free DMEM and subjected to oxygen and glucose deprivation by incubating the cells in glucose-free DMEM and 2 mM KCN for 30 minutes. Intracellular ATP levels were then determined.

In assay [3] the test system is H9c2 rat cardiomyocytes. Briefly: Intracellular ATP levels and morphology of H9c2 cardiomyocytes under homocysteic acid (HCA) oxidative stress. The class given is cell-based. The method, then: H9c2 rat cardiomyocytes were incubated with 10 mM homocysteic acid (HCA) in the absence or presence of various concentrations of compound G as indicated for 24 hours. Cell viability was determined by measuring intracellular ATP levels. Quantitation of intracellular ATP levels was performed using the ViaLight Plus™ kit (Cambrex Cat. No. LT17-221) according to the manufacturers instructions.
Phase contrast microscopy of cells treated with HCA correlated with the results shown for intracellular ATP levels in vehicle (DMSO) and compound G treated cells.

The subject of another assay is caspase-3 and caspase-7. Put plainly: Caspase-3 and caspase-7 fluorometric assay in SH-SY5Y cells challenged with staurosporin. The assay is classed as cell-based, human. Here is the method: SH-SY5Y cells (human neuroblastoma cells) were plated in 96-well culture plates at 60,000 cells per well. Following overnight incubation, cells were washed one time with DMEM containing 1% fetal bovine serum and cultured in identical media with either vehicle control (DMSO) or 20 μM compound G in a total volume of 200 μl per well. After 24 hours, cells were washed with serum-free media and then incubated with DMEM containing 10% fetal bovine serum with either vehicle control (DMSO) or 20 μM compound G in a total volume of 200 μl per well. Replicate cultures received DMEM with 1% fetal bovine serum and were cultured with either vehicle control (DMSO) or 20 μM compound G, in the absence or presence of 500 nM staurosporin, a kinase inhibitor that induces cellular apoptosis by a caspase-dependent mechanism. (Jacobsen et al. (1996) J Cell Biol. 133:1041-51.). After an additional 24 hour incubation, caspase activity was assayed using a caspase-3 and caspase-7 fluorometric assay according to the manufacturer's instructions (Apo-ONE Homogenous Caspase 3/7 Assay, Promega, Wis.).

The test system of a further assay is HO-1 protein. Briefly: HO-1 protein levels in H9c2 cardiomyocytes by ELISA. The assay is classed as cell-based, rat. To be noted: H9c2, 100 μM compound; control 2.86. Here is the method:
In another series of experiments, H9c2 rat cardiomyocytes were treated with either vehicle control or with various concentrations (1 μM, 3 μM, 10 μM, 30 μM, and 100 μM) of compound C or compound G. Cell lysates were harvested and HO-1 protein levels determined by ELISA according to the manufacturer's instructions (cat # EKS-810; Stressgen, Victoria, BC, Canada). Data shown below in Table 4 represents values obtain with 100 μM compound.
Background: An ELISA detects its analyte on a solid surface through an enzyme-linked reagent.

Structures are written as SMILES.

`O=C(O)CNC(=O)c1ncc2cc(Oc3ccccc3)ccc2c1O` [Compound G, [(4-Hydroxy-7-phenoxy-isoquinoline-3-carbonyl)-amino]-acetic acid]: the “increase in expression of the gene encoding adrenomedullin compared to non-treated control cells” value in assay [1] is on record as “greater than 3.518 fold”. In addition, the “ATP (relative light units)” value in the assay with H9c2 rat cardiomyocytes [2] stood at 2128.3 relative light units. In addition, the “intracellular ATP levels in the presence of HCA versus vehicle” value in the assay on H9c2 rat cardiomyocytes [3] (H9c2, 10 mM HCA, various concentrations, 24 hours, FIG. 2) is recorded as “dose-dependent increases in intracellular ATP levels”. In addition, the “cell morphology by phase contrast microscopy under HCA” value in the assay on H9c2 rat cardiomyocytes [3] (H9c2, HCA, 30 μM compound, FIG. 3) is “still confluent, appeared less rounded, and maintained a morphology consistent with viable cardiomyoctes”. Besides, the “intracellular ATP levels in cells not incubated with HCA” value in the assay with H9c2 rat cardiomyocytes [3] (H9c2, no HCA, data not shown) was “unchanged”. Further, in the assay on caspase-3 and caspase-7 (20 μM pretreatment, 500 nM staurosporin, 1% fetal bovine serum, FIG. 1), the “caspase activity after staurosporine challenge” value is listed as “significantly inhibited”. In the assay with caspase-3 and caspase-7 (20 μM, 10% fetal bovine serum, no staurosporin), the “caspase activity in cells not undergoing apoptosis, versus DMSO” value is “no differences in caspase activity”. Also, in the assay on HO-1 protein, the “HO-1 (ng/mg total cell protein)” value came out at 28.54 ng/mg total cell protein.

(Values after patent US20060251638A1, “Cytoprotection through the use of hif hydroxylase inhibitors” (priority 2003, published 2006).)
